Measured values from US10722484B2, “Methods of cancer treatment” (K-Gen, Inc., priority 2016, dated 2020).
Entries after “also recorded” stand apart in the source; their conditions may differ. Where two headings read alike, the source gives them in different places.

Key:
[1] = system: A549 lung cancer cell line; assay: Combination viability/proliferation assays (384-well IC50 ratio, 96-well MacSynergy II); assay type: cell-based; conditions: for effect in combination with the PKC activator compounds in inhibiting the growth of A549 cells: PKC activator compounds (K101A, K101E, K102); for Combination in A549: K101A (synergism/antagonism): agent assayed in combination with K101A; for Combination in A549: K101A (synergism/antagonism) / Combination in A549: K102 (synergism/antagonism): * 2-3 concentrations, # full concentration ranges; for Combination in A549: K102 (synergism/antagonism): agent assayed in combination with K102
Experimental: A 96-well MacSynergy II format for combination test was also used. […] The analysis was done with the SQRT(Data) scale and the four parameter Hill curve was fitted using XLfit5.1 (the MacSynergy II Excel Spreadsheet) for the inhibition data. Synergy (positive number) or Antagonism (negative number) volumes were calculated. […] Three-dimensional MacSynergy II graphs were generated where positive values indicated synergism and negative values indicated antagonism.

[2] = system: A549; assay: Proliferation assay (CellTiter Glo); assay type: cell-based; conditions: 96 hours
Experimental: (§1) The dose range for most compounds was 4.6 nM-30 μM. The dose ranges for some compounds were adjusted downward to 0.46 nM-3 μM or 0.08 nM-0.5 μM or 0.03 nM-0.2 μM. […] The results are shown in Tables 3-6 for pancreatic cancer, lung cancer, colon/gastric cancer, and leukemia.

[3] = system: AGS; assay: Proliferation assay (CellTiter Glo); assay type: cell-based; conditions: 96 hours
Experimental: as §1

[4] = system: Capan-1; assay: Proliferation assay (CellTiter Glo); assay type: cell-based; conditions: 96 hours
Experimental: as §1

[5] = system: H358; assay: Proliferation assay (CellTiter Glo); assay type: cell-based; conditions: HE58, 96 hours
Experimental: as §1

[6] = system: H441; assay: Proliferation assay (CellTiter Glo); assay type: cell-based; conditions: 96 hours
Experimental: as §1

[7] = system: H727; assay: Proliferation assay (CellTiter Glo); assay type: cell-based; conditions: 96 hours
Experimental: as §1

[8] = system: HCT116; assay: Proliferation assay (CellTiter Glo); assay type: cell-based; conditions: 96 hours
Experimental: as §1

[9] = system: KP-4; assay: Proliferation assay (CellTiter Glo); assay type: cell-based; conditions: 96 hours
Experimental: as §1

[10] = system: LS180; assay: Proliferation assay (CellTiter Glo); assay type: cell-based; conditions: 96 hours
Experimental: as §1

[11] = system: SW620; assay: Proliferation assay (CellTiter Glo); assay type: cell-based; conditions: 96 hours
Experimental: as §1

[12] = system: MiaPaCa-2; assay: Proliferation assay (CellTiter Glo); assay type: cell-based; conditions: 96 hours
[13] = system: HL60; assay: Proliferation assay (CellTiter Glo); assay type: cell-based, human; conditions: 96 hours
Experimental: as §1

[14] = system: THP1; assay: Proliferation assay (CellTiter Glo); assay type: cell-based, human; conditions: 96 hours
Experimental: as §1

[15] = system: BxPC-3; assay: Proliferation assay (CellTiter Glo); assay type: cell-based; conditions: BxPC-3 (RAS WT); 96 hours
Experimental: as §1
(§2) Other cancer cell lines having wild-type K-RAS status and K-RAS mutation at G12 were also screened using the PKC activator compounds. […] K104 was tested in a range of 0.03 nM-0.2 μM. […] The dose ranges were adjusted downward to 0.46 nM-3 μM for K102 and 0.08 nM-0.5 μM for K103 for some cell lines. The results of the screening of cancer cells lines with wild-type K-RAS status and K-RAS mutations at the G12 positions are presented in Table 7.

[16] = system: Colo205; assay: Proliferation assay (CellTiter Glo); assay type: cell-based; conditions: Colo205 (RAS WT); 96 hours
Experimental: as §1, §2

[17] = system: H1915; assay: Proliferation assay (CellTiter Glo); assay type: cell-based; conditions: H1915 (RAS WT); 96 hours
Experimental: as §1, §2

[18] = system: H838; assay: Proliferation assay (CellTiter Glo); assay type: cell-based; conditions: H838 (RAS WT); 96 hours
Experimental: as §1, §2

[19] = system: HT29; assay: Proliferation assay (CellTiter Glo); assay type: cell-based; conditions: HT29 (RAS WT); 96 hours
Experimental: as §1, §2

SMILES: C#Cc1cccc(Nc2ncnc3cc(OCCOC)c(OCCOC)cc23)c1 [Erlotinib]
- concentration range in which the antagonistic effect was detected ([1]; A549, with PKC activator compounds (FIG. 10A, 10B), trametinib full range tested, erlotinib lower half of range tested): 0.3 to 2.5 µM
- effect in combination with the PKC activator compounds in inhibiting the growth of A549 cells [1]: Moderate antagonistic effect

SMILES: CN[C@@H]1C[C@H]2O[C@@](C)([C@@H]1OC)n1c3ccccc3c3c4c(c5c6ccccc6n2c5c31)C(=O)NC4 [STS, staurosporine]
- effect in combination with the PKC activator compounds in inhibiting the growth of A549 cells [1]: synergistic effects
- Combination in A549: K101A (synergism/antagonism) ([1]; A549): Synergism
- Combination in A549: K101E (synergism/antagonism) ([1]; agent assayed in combination with K101E, A549): Synergism
- Combination in A549: K102 (synergism/antagonism) ([1]; A549): Synergism

SMILES: CS(=O)(=O)CCNCc1ccc(-c2ccc3ncnc(Nc4ccc(OCc5cccc(F)c5)c(Cl)c4)c3c2)o1 [Lapatinib]
- effect in combination with the PKC activator compounds in inhibiting the growth of A549 cells [1]: no or insignificant antagonistic effect; also recorded: insignificant synergism or antagonism

SMILES: CC(=O)OC12CC(C)C3(O)C(C4OC4(CO)CC4(O)C(O)C(C)=CC43)C1C2(C)C (stereo not shown) [Compound K101D]
- EC50 ([2]; A549 (K-RAS: G12S), absolute EC50, read-out: Ab EC50): > 30 µM
- Top Inhibition % ([2]; A549, % of top inhibition): 44.4%
- EC50 ([2]; A549, relative EC50, read-out: Re EC50): 7.72 µM
- EC50 ([3]; AGS (gastric, K-RAS: G12D), absolute EC50, read-out: Ab EC50): > 30 µM
- Top Inhibition % ([3]; AGS, % of top inhibition): 13.5%
- EC50 ([4]; Capan-1 (K-RAS: G12V), absolute EC50, read-out: Ab EC50): > 30 µM
- Top Inhibition % ([4]; Capan-1, % of top inhibition): 22.3%
- EC50 ([4]; Capan-1, relative EC50, read-out: Re EC50): 8.66 µM
- Top Inhibition % ([5]; % of top inhibition): 23.0%
- EC50 ([5]; absolute EC50, read-out: Ab EC50): > 30 µM
- EC50 ([5]; relative EC50, read-out: Re EC50): 11 µM
- EC50 ([6]; H441 (K-RAS: G12V), absolute EC50, read-out: Ab EC50): > 30 µM
- Top Inhibition % ([6]; H441, % of top inhibition): 11.6%
- EC50 ([7]; H727 (K-RAS: G12V), absolute EC50, read-out: Ab EC50): > 30 µM
- Top Inhibition % ([7]; H727, % of top inhibition): 31.8%
- EC50 ([7]; H727, relative EC50, read-out: Re EC50): 8.37 µM
- EC50 ([8]; HCT116 (K-RAS: G13D), absolute EC50, read-out: Ab EC50): > 30 µM
- Top Inhibition % ([8]; HCT116, % of top inhibition): 3.0%
- EC50 ([9]; KP-4 (K-RAS: G12C), absolute EC50, read-out: Ab EC50): > 30 µM
- Top Inhibition % ([9]; KP-4, % of top inhibition): 47.9%
- EC50 ([9]; KP-4, relative EC50, read-out: Re EC50): 5.47 µM
- EC50 ([10]; LS180 (K-RAS: G12D), absolute EC50, read-out: Ab EC50): > 30 µM
- Top Inhibition % ([10]; LS180, % of top inhibition): 8.2%
- EC50 ([11]; SW620 (K-RAS: G12V), absolute EC50, read-out: Ab EC50): > 30 µM
- Top Inhibition % ([11]; SW620, % of top inhibition): 0.0%
- EC50 ([12]; MiaPaCa-2 (K-RAS: G12C), absolute EC50, read-out: Ab EC50): > 30 µM
- Top Inhibition % ([12]; MiaPaCa-2, % of top inhibition): 18.6%
- EC50 ([13]; HL60 (N-RAS: Q61L), absolute EC50, read-out: Ab EC50): > 30 µM
- Top Inhibition % ([13]; HL60, % of top inhibition): 14.4%
- EC50 ([14]; THP1 (N-RAS: G12D), absolute EC50, read-out: Ab EC50): > 30 µM
- Top Inhibition % ([14]; THP1, % of top inhibition): 33.6%
- EC50 ([14]; THP1, relative EC50, read-out: Re EC50): 14 µM
- Top Inhibition % [15]: 37.49%
- Top Inhibition % [16]: 42.3%
- Top Inhibition % [17]: 28.6%
- Top Inhibition % [18]: 27.7%
- Top Inhibition % [19]: 10.0%

SMILES: Cc1cc(-c2ncc(CC(=O)Nc3ccc(-c4cnccn4)cn3)cc2C)ccn1 [LGK-974, 2-[5-methyl-6-(2-methylpyridin-4-yl)pyridin-3-yl]-N-(5-pyrazin-2-ylpyridin-2-yl)acetamide]
- Combination in A549: K101A (synergism/antagonism) ([1]; A549): Synergism (minor)
- Combination in A549: K102 (synergism/antagonism) ([1]; A549): Synergism (minor)

SMILES: CC(C)C[C@H](NC(=O)[C@H](CCc1ccccc1)NC(=O)CN1CCOCC1)C(=O)N[C@@H](Cc1ccccc1)C(=O)N[C@@H](CC(C)C)C(=O)[C@@]1(C)CO1 [Carfilzomib]
- effect in combination with the PKC activator compounds in inhibiting the growth of A549 cells [1]: insignificant synergism or antagonism
- Combination in A549: K101A (synergism/antagonism) ([1]; A549): None
- Combination in A549: K102 (synergism/antagonism) ([1]; A549): None
